Here are results for 2 compounds from patent US7091351B2, “Vanadium compounds for treating cancer” (Parker Hughes Institute, priority 1998, dated 2006).

What all share (type): cell-based, human
Test [1] concerns ARH77 multiple myeloma cells. Nature of the test: MTT cytotoxicity assay of oxovanadium(IV) compounds, ARH77. To be noted: 48 hr. Background: Tetrazolium dyes change colour on reduction, which living cells bring about.
Test [2] relates to HS445 Hodgkin's lymphoma cells. Nature of the test: MTT cytotoxicity assay of oxovanadium(IV) compounds, HS445. As to conditions: 48 hr. An outline of the steps:
(§1)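 MTT read-out at 540 nm (reference 690 nm), converted to live cell number with per-line standard curves, then % survival versus untreated control. Cells were treated 48 h at 37° C with 0.1–250 μM compound. IC50 obtained by non-linear regression.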

The test system of test [3] is HL-60 cells. Description: MTT cytotoxicity assay of oxovanadium(IV) compounds, HL-60. As to conditions: 48 hr. The method in brief: as §1
Test [4] relates to Ntera-2 testicular cancer cells. Nature of the test: Flow cytometric TUNEL apoptosis assay, NTERA-2 cells. As to conditions: 24 h, TUNEL-positive nuclei. The method in brief:
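Cells at 10^6/ml treated 24 h with 100 μM vanadocene in 0.1% DMSO. Ntera-2: two-color flow TUNEL, FITC-dUTP labeling of DNA breaks with PI counterstain, apoptotic fraction gated.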
(Flow cytometry measures light scatter and fluorescence of single cells or particles in a stream.)

Test [5] relates to Tera-2 testicular cancer cells. Nature of the test: Flow cytometric TUNEL apoptosis assay, TERA-2 cells. As to conditions: 24 h, TUNEL-positive nuclei.

A word on the IC50: it is the midpoint of a concentration-inhibition curve. A lower IC50 goes with inhibition by little substance. With “bis(4,7-dimethyl-1,10-phenanthroline)sulfatooxovanadium(IV) [Compound 29]”, the IC50 in test [1] was 810 ± 900 nM; in test [2], 500 ± 80 nM; in test [3], 980 ± 100 nM.
`[Cl-].[Cl-].[V+4].c1cc[cH-]c1.c1cc[cH-]c1` [VDC, VCp2Cl2]: the “% Apoptosis at 100 μM NTERA-2” value in test [4] is 35 (34, 34) %. For the same compound, the “% Apoptosis at 100 μM TERA-2” value in test [5] is 88 (87, 89) %.
